Experimental data: patent US7074789B2, “Kinase inhibitors” (Amgen Inc., priority 1999, dated 2006)

Tests used:
Assay type in all cases: biochemical
AKT = target: T1, AKT (Homo sapiens, UniProt Q9Y243); experiment: Kinase inhibition assay (33P transfer), AKT; conditions: Table 2, class symbols A-E; read-out: AKT3-1
T1 construct: Kinases are expressed as either kinase domains or full length constructs; made in house
Outline: (§1)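 Radiometric readout: 33P incorporated into surface-bound poly(Glu,Tyr) 4:1 or poly(Arg,Ser) 3:1 is counted by liquid scintillation after a 0.5% phosphoric acid wash. Enzymes were GST or polyHis fusions (kinase domain or full length) from E. coli or High Five insect cells.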

EGFR = target: T2, EGFR (Homo sapiens, UniProt P00533); experiment: Kinase inhibition assay (33P transfer), EGFR; conditions: Table 2, class symbols A-E; read-out: EGFR-1
T2 construct: Kinases are expressed as either kinase domains or full length constructs; made in house
Outline: (§2)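 Using immobilised substrate copolymers (poly(Glu,Tyr) 4:1; poly(Arg,Ser) 3:1) and [33P]ATP, purified fusion kinases were allowed to react; plates were then rinsed in 0.5% phosphoric acid and counted in a scintillation detector. Half-maximal inhibition of label transfer defines IC50.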

c-Met = target: T3, c-Met (Homo sapiens, UniProt P08581); experiment: Kinase inhibition assay (33P transfer), c-Met; conditions: Table 2, class symbols A-E; read-out: Met-1
T3 construct: Kinases are expressed as either kinase domains or full length constructs; made in house
Outline: as §2

PDGFRB = target: T4, PDGFRB (Homo sapiens, UniProt P09619); experiment: Kinase inhibition assay (33P transfer), PDGFRB; conditions: read-out: PDGFRB-1
T4 construct: Kinases are expressed as either kinase domains or full length constructs; made in house

Itk = target: T5, Itk (Homo sapiens, UniProt Q08881); experiment: Kinase inhibition assay (33P transfer), Itk; conditions: Table 3, class symbols; read-out: Itk-1
T5 construct: Kinases are expressed as either kinase domains or full length constructs; made in house
T5 sequence (Q08881 1-620): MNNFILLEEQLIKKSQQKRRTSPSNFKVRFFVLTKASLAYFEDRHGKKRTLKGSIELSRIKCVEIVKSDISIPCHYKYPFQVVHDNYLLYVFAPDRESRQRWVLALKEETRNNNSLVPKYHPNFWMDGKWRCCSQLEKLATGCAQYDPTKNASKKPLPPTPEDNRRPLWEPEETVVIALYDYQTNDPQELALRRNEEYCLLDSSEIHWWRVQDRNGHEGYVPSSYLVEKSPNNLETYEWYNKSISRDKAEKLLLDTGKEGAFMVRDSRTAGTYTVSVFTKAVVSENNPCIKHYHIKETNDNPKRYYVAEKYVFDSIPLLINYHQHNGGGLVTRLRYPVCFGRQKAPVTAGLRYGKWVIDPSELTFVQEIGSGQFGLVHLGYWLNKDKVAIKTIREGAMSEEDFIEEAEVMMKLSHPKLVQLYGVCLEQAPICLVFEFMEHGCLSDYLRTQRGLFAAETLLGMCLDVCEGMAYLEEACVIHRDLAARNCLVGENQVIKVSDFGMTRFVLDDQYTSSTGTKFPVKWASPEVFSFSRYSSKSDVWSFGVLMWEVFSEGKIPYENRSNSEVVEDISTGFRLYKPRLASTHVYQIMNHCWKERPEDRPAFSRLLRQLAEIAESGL
Outline: as §2

IGFR-1 = target: T6, IGFR-1 (Homo sapiens, UniProt P08069); experiment: Kinase inhibition assay (33P transfer), IGFR-1; conditions: Table 2, class symbols A-E
T6 construct: Kinases are expressed as either kinase domains or full length constructs; made in house

Kdr = target: T7, Kdr (Homo sapiens, UniProt P35968); experiment: Kinase inhibition assay (33P transfer), Kdr; conditions: Table 3, class symbols; read-out: KDR-1
T7 construct: Kinases are expressed as either kinase domains or full length constructs; made in house
Outline: as §1

Lck = target: T8, Lck (Homo sapiens, UniProt P06239); experiment: Kinase inhibition assay (33P transfer), Lck; conditions: Table 3, class symbols; read-out: Lck-1
T8 construct: Kinases are expressed as either kinase domains or full length constructs; made in house
Outline: as §1

Zap-70 = target: T9, Zap-70 (Homo sapiens, UniProt P43403); experiment: Kinase inhibition assay (33P transfer), Zap-70; conditions: Table 3, class symbols; read-out: Zap-1
T9 construct: Kinases are expressed as either kinase domains or full length constructs; made in house
T9 sequence (P43403 1-619): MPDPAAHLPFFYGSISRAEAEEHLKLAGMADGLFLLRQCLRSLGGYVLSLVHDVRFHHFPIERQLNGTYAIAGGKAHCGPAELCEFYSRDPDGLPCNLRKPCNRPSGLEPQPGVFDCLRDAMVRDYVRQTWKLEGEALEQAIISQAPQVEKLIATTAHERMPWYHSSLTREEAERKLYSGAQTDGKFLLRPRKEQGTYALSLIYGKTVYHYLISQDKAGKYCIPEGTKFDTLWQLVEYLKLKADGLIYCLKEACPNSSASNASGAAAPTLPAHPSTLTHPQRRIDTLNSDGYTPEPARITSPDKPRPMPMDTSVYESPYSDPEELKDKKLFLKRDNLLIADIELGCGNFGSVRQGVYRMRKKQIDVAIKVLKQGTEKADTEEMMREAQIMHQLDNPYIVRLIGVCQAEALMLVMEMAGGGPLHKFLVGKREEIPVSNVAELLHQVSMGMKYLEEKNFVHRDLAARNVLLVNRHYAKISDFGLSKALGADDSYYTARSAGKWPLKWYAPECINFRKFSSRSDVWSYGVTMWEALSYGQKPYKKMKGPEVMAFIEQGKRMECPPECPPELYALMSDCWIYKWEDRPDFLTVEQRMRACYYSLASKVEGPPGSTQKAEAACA
Outline: as §1

ErbB2 = target: T10, ErbB2 (Homo sapiens, UniProt P04626); experiment: Kinase inhibition assay (33P transfer), ErbB2; conditions: read-out: ErbB2-2
T10 construct: Kinases are expressed as either kinase domains or full length constructs; made in house
Outline: as §2

T7 sequence (P35968 20-1356, species assumed): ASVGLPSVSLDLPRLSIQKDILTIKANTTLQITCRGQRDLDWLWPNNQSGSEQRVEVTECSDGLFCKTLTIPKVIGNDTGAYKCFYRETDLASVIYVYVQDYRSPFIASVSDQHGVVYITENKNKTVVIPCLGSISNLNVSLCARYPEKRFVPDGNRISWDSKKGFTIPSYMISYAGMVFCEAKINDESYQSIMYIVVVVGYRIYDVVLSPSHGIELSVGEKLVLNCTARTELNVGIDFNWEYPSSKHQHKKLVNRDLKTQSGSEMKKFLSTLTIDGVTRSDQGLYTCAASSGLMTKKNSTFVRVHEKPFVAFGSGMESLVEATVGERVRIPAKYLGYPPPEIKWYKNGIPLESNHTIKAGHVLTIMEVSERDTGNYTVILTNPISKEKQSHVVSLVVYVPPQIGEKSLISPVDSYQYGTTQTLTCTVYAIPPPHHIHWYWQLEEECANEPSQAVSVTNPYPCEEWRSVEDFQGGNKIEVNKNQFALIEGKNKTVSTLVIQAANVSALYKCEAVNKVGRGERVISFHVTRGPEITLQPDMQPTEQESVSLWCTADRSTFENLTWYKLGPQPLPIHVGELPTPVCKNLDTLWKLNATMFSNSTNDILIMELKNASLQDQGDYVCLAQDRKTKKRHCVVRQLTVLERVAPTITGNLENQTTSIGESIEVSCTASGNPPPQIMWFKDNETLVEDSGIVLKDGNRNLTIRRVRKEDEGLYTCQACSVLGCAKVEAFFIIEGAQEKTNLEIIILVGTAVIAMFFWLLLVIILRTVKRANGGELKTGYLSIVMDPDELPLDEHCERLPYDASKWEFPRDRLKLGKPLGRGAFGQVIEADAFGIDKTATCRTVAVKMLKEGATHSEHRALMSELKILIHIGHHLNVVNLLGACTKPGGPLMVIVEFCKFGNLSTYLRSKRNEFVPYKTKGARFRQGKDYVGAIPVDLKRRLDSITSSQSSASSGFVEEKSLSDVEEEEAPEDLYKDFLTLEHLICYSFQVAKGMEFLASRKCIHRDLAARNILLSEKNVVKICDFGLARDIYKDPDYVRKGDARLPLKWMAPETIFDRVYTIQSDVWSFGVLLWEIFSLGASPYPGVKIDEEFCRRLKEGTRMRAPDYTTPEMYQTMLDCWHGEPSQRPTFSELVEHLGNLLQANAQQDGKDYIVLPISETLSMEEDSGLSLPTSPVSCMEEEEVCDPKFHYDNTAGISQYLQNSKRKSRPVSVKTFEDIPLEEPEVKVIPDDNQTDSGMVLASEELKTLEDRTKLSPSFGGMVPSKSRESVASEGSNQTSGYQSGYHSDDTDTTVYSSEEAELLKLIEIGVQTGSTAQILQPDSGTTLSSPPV
T3 sequence (P08581 25-1390): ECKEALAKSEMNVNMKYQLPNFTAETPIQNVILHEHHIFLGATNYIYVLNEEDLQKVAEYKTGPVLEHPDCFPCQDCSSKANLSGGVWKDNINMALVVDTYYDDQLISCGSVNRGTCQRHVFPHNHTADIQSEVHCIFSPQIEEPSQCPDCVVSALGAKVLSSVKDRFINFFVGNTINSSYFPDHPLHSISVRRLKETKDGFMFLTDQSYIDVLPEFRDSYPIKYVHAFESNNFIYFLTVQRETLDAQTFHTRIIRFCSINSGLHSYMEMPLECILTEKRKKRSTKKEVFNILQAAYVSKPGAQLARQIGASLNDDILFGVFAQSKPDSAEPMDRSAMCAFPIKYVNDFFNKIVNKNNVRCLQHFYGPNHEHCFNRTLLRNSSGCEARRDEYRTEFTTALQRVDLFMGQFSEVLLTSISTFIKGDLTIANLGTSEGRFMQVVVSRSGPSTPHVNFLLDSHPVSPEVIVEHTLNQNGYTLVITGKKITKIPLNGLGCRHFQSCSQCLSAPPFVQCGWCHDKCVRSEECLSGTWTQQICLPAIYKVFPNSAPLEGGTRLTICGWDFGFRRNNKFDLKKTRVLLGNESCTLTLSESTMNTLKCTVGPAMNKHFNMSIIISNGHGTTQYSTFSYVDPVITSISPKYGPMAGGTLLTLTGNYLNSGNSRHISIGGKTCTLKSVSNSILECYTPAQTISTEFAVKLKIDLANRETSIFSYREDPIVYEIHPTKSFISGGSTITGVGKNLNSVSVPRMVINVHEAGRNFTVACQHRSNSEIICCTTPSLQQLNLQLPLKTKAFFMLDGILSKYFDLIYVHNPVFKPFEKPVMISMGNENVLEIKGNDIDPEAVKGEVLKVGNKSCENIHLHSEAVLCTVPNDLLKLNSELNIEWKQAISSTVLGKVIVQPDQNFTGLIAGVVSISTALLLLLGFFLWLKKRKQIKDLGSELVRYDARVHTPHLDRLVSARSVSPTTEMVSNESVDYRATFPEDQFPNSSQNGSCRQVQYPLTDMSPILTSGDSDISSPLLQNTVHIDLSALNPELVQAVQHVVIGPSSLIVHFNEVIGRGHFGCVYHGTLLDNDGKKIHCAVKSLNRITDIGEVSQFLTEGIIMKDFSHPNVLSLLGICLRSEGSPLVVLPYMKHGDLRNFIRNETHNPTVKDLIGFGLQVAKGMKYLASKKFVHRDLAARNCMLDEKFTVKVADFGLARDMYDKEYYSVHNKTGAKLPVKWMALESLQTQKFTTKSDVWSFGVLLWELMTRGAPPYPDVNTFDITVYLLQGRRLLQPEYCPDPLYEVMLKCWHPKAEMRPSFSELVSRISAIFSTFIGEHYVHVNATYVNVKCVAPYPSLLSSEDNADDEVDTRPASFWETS
T10 sequence (P04626 23-1255, species assumed): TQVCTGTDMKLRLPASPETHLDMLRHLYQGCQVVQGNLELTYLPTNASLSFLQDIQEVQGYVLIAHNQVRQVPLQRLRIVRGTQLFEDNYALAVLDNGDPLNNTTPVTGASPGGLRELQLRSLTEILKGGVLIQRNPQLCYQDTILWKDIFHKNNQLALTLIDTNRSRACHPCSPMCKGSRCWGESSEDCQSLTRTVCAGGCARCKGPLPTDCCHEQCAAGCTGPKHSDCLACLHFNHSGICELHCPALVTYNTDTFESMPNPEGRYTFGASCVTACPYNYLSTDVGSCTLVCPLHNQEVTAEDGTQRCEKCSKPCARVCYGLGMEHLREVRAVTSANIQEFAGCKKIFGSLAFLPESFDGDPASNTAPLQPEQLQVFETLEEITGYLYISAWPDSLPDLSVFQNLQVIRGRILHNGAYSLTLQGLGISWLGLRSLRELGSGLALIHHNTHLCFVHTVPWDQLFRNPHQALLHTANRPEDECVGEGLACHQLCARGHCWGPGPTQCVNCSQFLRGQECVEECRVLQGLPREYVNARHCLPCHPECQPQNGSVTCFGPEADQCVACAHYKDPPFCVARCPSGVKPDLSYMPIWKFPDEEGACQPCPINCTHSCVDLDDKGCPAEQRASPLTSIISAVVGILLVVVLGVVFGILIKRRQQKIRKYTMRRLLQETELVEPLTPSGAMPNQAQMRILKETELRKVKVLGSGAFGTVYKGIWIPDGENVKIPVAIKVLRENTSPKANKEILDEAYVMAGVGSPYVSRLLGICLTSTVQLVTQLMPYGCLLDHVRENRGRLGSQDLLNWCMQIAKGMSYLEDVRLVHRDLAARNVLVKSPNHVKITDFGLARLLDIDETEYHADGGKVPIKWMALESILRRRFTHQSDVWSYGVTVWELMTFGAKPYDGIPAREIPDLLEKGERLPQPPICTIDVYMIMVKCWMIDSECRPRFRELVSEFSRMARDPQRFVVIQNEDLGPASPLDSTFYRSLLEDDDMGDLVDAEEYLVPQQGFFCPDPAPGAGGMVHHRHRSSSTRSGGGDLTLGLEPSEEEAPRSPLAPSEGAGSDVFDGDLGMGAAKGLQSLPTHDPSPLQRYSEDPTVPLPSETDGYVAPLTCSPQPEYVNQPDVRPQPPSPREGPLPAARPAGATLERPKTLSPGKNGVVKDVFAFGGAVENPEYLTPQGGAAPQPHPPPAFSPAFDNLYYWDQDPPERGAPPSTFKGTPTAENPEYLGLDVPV
T1 sequence (Q9Y243 whole entry, the tested form may be a part): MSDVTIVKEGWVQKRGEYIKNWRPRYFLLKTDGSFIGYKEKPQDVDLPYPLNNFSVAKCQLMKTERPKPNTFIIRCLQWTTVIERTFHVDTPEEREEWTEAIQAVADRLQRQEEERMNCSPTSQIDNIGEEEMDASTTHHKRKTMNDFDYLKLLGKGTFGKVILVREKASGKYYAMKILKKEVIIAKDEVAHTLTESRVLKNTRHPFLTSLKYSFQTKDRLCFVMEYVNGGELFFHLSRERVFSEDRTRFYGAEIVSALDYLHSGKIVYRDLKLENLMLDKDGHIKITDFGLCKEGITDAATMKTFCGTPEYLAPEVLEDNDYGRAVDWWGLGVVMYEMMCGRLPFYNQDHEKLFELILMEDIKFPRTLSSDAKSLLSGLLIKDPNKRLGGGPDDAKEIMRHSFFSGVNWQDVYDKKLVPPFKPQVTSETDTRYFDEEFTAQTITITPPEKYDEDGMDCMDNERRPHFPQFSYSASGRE
T8 sequence (P06239 whole entry, species assumed, the tested form may be a part): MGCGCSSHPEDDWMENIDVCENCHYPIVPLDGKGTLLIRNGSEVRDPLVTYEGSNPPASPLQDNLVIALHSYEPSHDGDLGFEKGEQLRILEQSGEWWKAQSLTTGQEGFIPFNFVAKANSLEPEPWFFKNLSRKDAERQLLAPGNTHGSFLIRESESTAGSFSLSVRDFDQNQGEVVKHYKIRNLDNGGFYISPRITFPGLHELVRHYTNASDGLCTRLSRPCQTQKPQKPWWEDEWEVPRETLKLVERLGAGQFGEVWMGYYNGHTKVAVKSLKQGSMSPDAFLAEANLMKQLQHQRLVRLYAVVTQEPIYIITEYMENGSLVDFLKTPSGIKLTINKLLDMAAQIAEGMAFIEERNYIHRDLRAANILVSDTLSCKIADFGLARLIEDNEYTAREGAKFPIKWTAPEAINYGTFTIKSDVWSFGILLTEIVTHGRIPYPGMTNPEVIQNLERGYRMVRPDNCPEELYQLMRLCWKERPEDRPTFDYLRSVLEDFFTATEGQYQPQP

Row | IC50 (AKT) | IC50 (EGFR) | IC50 (c-Met) | IC50 (PDGFRB) | IC50 (Itk) | IC50 (IGFR-1) | IC50 (Kdr) | IC50 (Lck) | IC50 (Zap-70) | IC50 (ErbB2) | SMILES
1 | 8.7 to 11.2 µM | > 11.2 µM | 5.96 to 8.7 µM | 8.7 to 11.2 µM | 0.994 to 5.96 µM | 5.96 to 8.7 µM | > 11.2 µM | > 11.2 µM | > 11.2 µM | 8.7 to 11.2 µM | COC(=O)c1ccc(-c2cc(Nc3ncnc(NCc4cccnc4)n3)[nH]n2)cc1 [Compound 809]
2 | > 11.4 µM | 1.01 to 6.06 µM | > 11.4 µM | > 11.4 µM | > 11.4 µM | > 11.4 µM | > 11.4 µM | > 11.4 µM | > 11.4 µM | > 11.4 µM | CN(c1cccc(Cl)c1)c1ncnc(Nc2ccc(OC(F)(F)F)cc2)n1 [Compound 874]
3 | 0.931 to 5.59 µM | < 0.931 µM | 0.931 to 5.59 µM | > 10.5 µM | > 10.5 µM | 5.59 to 8.15 µM | > 10.5 µM | > 10.5 µM | > 10.5 µM | 0.931 to 5.59 µM | Fc1ccc(Nc2ncnc(Nc3ccc4c(cnn4Cc4ccccc4)c3)n2)cc1F [Compound 902]
4 | > 12.5 µM | > 12.5 µM | > 12.5 µM | > 12.5 µM | > 12.5 µM | > 12.5 µM | > 12.5 µM | > 12.5 µM | > 12.5 µM | > 12.5 µM | CCN(CC)CCN(C)c1ncnc(Nc2ccc(OC)c(OC)c2)n1 [Compound 870]
5 | > 10.2 µM | < 0.905 µM | 0.905 to 5.43 µM | 0.905 to 5.43 µM | > 10.2 µM | > 10.2 µM | 5.43 to 7.92 µM | 5.43 to 7.92 µM | 7.92 to 10.2 µM | 5.43 to 7.92 µM | CN(c1cccc(Cl)c1)c1ncnc(Nc2ccc3nn(Cc4ccccc4)cc3c2)n1 [Compound 673]
6 | > 12.8 µM | < 1.14 µM | 1.14 to 6.83 µM | 1.14 to 6.83 µM | > 12.8 µM | 1.14 to 6.83 µM | 1.14 to 6.83 µM | 1.14 to 6.83 µM | > 12.8 µM | 1.14 to 6.83 µM | COc1ccc(Nc2ncnc(N(C)c3ccc(C)cc3)n2)cc1OC [Compound 799]
7 | > 12.1 µM | < 1.08 µM | < 1.08 µM | < 1.08 µM | > 12.1 µM | 9.41 to 12.1 µM | 1.08 to 6.45 µM | 1.08 to 6.45 µM | > 12.1 µM | < 1.08 µM | COc1ccc(Nc2ncnc(N(C)c3ccc(Cl)cc3)n2)cc1OC [Compound 795]
8 | > 9.45 µM | < 0.84 µM | 5.04 to 7.35 µM | 5.04 to 7.35 µM | > 9.45 µM | > 9.45 µM | > 9.45 µM | > 9.45 µM | > 9.45 µM | 5.04 to 7.35 µM | CN(c1ccc(Cl)c(Cl)c1)c1ncnc(Nc2ccc3c(cnn3Cc3ccccc3)c2)n1 [Compound 903]
9 | > 8.64 µM | 0.768 to 4.61 µM | > 8.64 µM | 4.61 to 6.72 µM | > 8.64 µM | > 8.64 µM | 6.72 to 8.64 µM | 0.768 to 4.61 µM | > 8.64 µM | 0.768 to 4.61 µM | COc1cc(Nc2ncnc(Nc3cc(Cl)c(NC(=O)c4ccccc4)cc3C)n2)cc(OC)c1OC [Compound 633]
10 | > 11.5 µM | > 11.5 µM | 6.13 to 8.94 µM | > 11.5 µM | 6.13 to 8.94 µM | 6.13 to 8.94 µM | > 11.5 µM | > 11.5 µM | > 11.5 µM | > 11.5 µM | COC(=O)c1ccc(-c2cc(Nc3ncnc(NCc4ccco4)n3)[nH]n2)cc1 [Compound 805]
11 | 8.35 to 10.7 µM | < 0.954 µM | 0.954 to 5.72 µM | 0.954 to 5.72 µM | 0.954 to 5.72 µM | 0.954 to 5.72 µM | 0.954 to 5.72 µM | 0.954 to 5.72 µM | 0.954 to 5.72 µM | < 0.954 µM | FC(F)(F)Sc1cccc(Nc2ncnc(Nc3cc(-c4ccco4)[nH]n3)n2)c1 [Compound 827]
12 | 0.838 to 5.03 µM | 0.838 to 5.03 µM | 0.838 to 5.03 µM | > 9.43 µM | > 9.43 µM | 5.03 to 7.33 µM | 0.838 to 5.03 µM | > 9.43 µM | > 9.43 µM | 0.838 to 5.03 µM | FC(F)(F)Oc1ccc(Nc2ncnc(Nc3ccc4c(cnn4Cc4ccccc4)c3)n2)cc1 [Compound 906]
13 | > 11 µM | 5.89 to 8.59 µM | 0.982 to 5.89 µM | 0.982 to 5.89 µM | 0.982 to 5.89 µM | 8.59 to 11 µM | > 11 µM | > 11 µM | > 11 µM | > 11 µM | COC(=O)c1ccc(-c2cc(Nc3ncnc(NCc4cccs4)n3)[nH]n2)cc1 [Compound 877]
14 | > 10.8 µM | > 10.8 µM | 8.38 to 10.8 µM | 0.958 to 5.75 µM | > 10.8 µM | > 10.8 µM | 0.958 to 5.75 µM | > 10.8 µM | > 10.8 µM | > 10.8 µM | COc1ccc(Nc2ncnc(N(C)c3ccc(S(=O)(=O)O)cc3)n2)cc1OC [Compound 798]
15 | > 8.53 µM | > 8.53 µM | > 8.53 µM | > 8.53 µM | > 8.53 µM | > 8.53 µM | > 8.53 µM | > 8.53 µM | > 8.53 µM | > 8.53 µM | COc1cc(Nc2ncnc(-c3cccnc3NC3CCN(Cc4ccccc4)CC3)n2)cc(OC)c1OC [Compound 847]
16 | > 12.1 µM | 1.08 to 6.45 µM | > 12.1 µM | > 12.1 µM | > 12.1 µM | > 12.1 µM | > 12.1 µM | 1.08 to 6.45 µM | > 12.1 µM | 6.45 to 9.41 µM | COc1ccc(Nc2ncnc(NCc3cccc(Cl)c3)n2)cc1OC [Compound 792]
17 | > 9.81 µM | > 9.81 µM | > 9.81 µM | < 0.872 µM | > 9.81 µM | > 9.81 µM | < 0.872 µM | < 0.872 µM | > 9.81 µM | 7.63 to 9.81 µM | COc1cc(Nc2ncnc(-c3cccnc3NC(C)c3ccccc3)n2)cc(OC)c1OC (centres unmarked) [Compound 843]
18 | > 9.01 µM | > 9.01 µM | > 9.01 µM | > 9.01 µM | > 9.01 µM | > 9.01 µM | > 9.01 µM | > 9.01 µM | > 9.01 µM | > 9.01 µM | COc1cc(Nc2ncnc(-c3cccnc3Nc3cc(Cl)cc(Cl)c3)n2)cc(OC)c1OC [Compound 837]
19 | > 11.5 µM | < 1.02 µM | > 11.5 µM | > 11.5 µM | 8.93 to 11.5 µM | > 11.5 µM | > 11.5 µM | > 11.5 µM | > 11.5 µM | 1.02 to 6.12 µM | COc1cc(Nc2ncnc(N(C)c3cccc(Cl)c3)n2)cc2ccccc12 [Compound 876]
20 | > 12.9 µM | < 1.15 µM | > 12.9 µM | < 1.15 µM | 6.89 to 10 µM | > 12.9 µM | > 12.9 µM | > 12.9 µM | > 12.9 µM | > 12.9 µM | COc1ccc(Nc2ncnc(Nc3cccc(C#N)c3)n2)cc1OC [Compound 897]
